Measured values published in patent US8962808B2, “EGFR-related polypeptides and methods of use” (The Research Foundation for the State University of New York, priority 2010, dated 2015).

Experiments:
[1] = tested on: cancer cells with EGFRvIII expression; conditions: literature reports; cited from earlier work
[2] = tested on: non-small cell lung cancer; conditions: NSCLC patients with activating mutations in the EGFR tyrosine kinase domain; cited from earlier work
NIH 3T3 cells = test: Western blot of phosphorylation of GFP-tagged EGFRΔ[…] versus WT-EGFR in NIH 3T3 cells; assay type: cell-based; conditions: no ligand, FIG. 7A
From the text: Dafna Bar-Sagi). Then, we subcloned the novel extracellular deletion mutant Δ[…] into this vector. […]

SY5Y = test: IP-western of phosphorylation status of GFP-tagged EGFR mutants in SY5Y cells; assay type: cell-based, human; conditions: anti-GFP IP, higher than EGFRvIII, FIG. 7D
From the text: Then, we prepared RNA and protein lysates from the transfected cells. We confirmed the identity of the lysates by RT-PCR (FIG. 7C). Next, we evaluated the phosphorylation status of both mutants. Because SY5Y cells expressed endogenous WT-EGFR (21, 22), we used anti-GFP antibody to immunoprecipitate the mutant EGFR polypeptides.

C#Cc1cccc(Nc2ncnc3cc(OCCOC)c(OCCOC)cc23)c1 [erlotinib]
sensitivity of cancer cells with EGFRvIII expression [1]: not as sensitive

COc1cc2ncnc(Nc3ccc(F)c(Cl)c3)c2cc1OCCCN1CCOCC1 [gefitinib]
patient response [2]: dramatic response

EGFRΔ768: truncated EGFR, in-frame deletion from nucleotide 102 of exon 2 to nucleotide 869 of exon 7
phosphorylation in the absence of ligand (versus WT-EGFR) (NIH 3T3 cells): constitutively active | autophosphorylation level, difference versus EGFRvIII (SY5Y): ~40%
